Common to all, as to assay type: in vivo
Series [1] concerns Hartley guinea pigs. The series can be described thus: Test Example 3 (safety test), primary stimulation to the skin. The following applies: 1 wt % solution in acetone; female guinea pigs. On the procedure:
(§1) Test Example 3 (safety test) Method Five (5) or ten (10) Hartley guinea pigs (female, body weight: 350-400 g) are used. A 1 wt % solution of each test compound in acetone was prepared, and the solution was tested with respect to its sensitizing potential, primary stimulation to the skin, and photo-toxicity. As test compounds, three compounds, i.e., compound Nos. 1, 10, and 14 in Table 1, were used.

Series [2] concerns Hartley guinea pigs. Put plainly: Test Example 3 (safety test), sensitization, maximization method. The following applies: 1 wt % solution in acetone; induction at 10 wt %; female guinea pigs. The method, then: as §1, with “were used. The sensitization test was performed in accordance with the maximization method proposed by Magnusson [Magnusson, B and Kligman, A.M.,; "The identification of contact allergens by animal assay. The guinea pig maximization test" (J. Inv. Derm., 52, p268-276 (1969))]. The induction of sensitization was performed at a concentration of 10 wt %.” for “were used.”

The test system of series [3] is Hartley guinea pigs. Put plainly: Test Example 3 (safety test), photo-toxicity. The conditions noted are these: 1 wt % solution in acetone; light source FL-40S.BLB (300-400 nm); female guinea pigs. On the procedure: Test Example 3 (safety test)
Five (5) or ten (10) Hartley guinea pigs (female, body weight: 350-400 g) are used. A 1 wt % solution of each test compound in acetone was prepared, and the solution was tested with respect to its sensitizing potential, primary stimulation to the skin, and photo-toxicity.
As test compounds, three compounds, i.e., compound Nos. 1, 10, and 14 in Table 1, were used.
The positive control compound used for the photo-toxicity was an ethanol solution containing 100 ppm of 8-methoxypsoralen (product of Aldrich). The light source used was FL-40S.BLB (300-400 nm; manufactured by Toshiba).

On to `CCCCCCCCCCCCNCc1ccc2c(c1)OCO2` [Compound No. 1], for which the Primary stimulation in series [1] is given as 0/5. In addition, the Sensitization in series [2] is recorded as 0/10. Also, in series [3], the Photo-toxicity is on record as 0/5.
As for `CCCCCCCCCCCCNCc1ccc(OC)c(O)c1` [Compound No. 10, N-lauryl-3-hydroxy-4-methoxybenzylamine], the Primary stimulation in series [1] was 0/5. In series [2], the Sensitization is given as 0/10. For the same compound, the Photo-toxicity in series [3] is listed as 0/5.
`CCCCCCCCCCCCN(C)Cc1cc(OC)c(OC)cc1OC` [Compound No. 14]: the Primary stimulation in series [1] is recorded as 0/5. Besides, the Sensitization in series [2] is recorded as 0/10. The Photo-toxicity in series [3] is 0/5.

Values taken from patent US5786386A, “Antibacterial and fungicidal agent” (Takasago International Corporation, priority 1995, dated 1998).
